# Key:
# [1] = biological target: T1, β5 subunit of the human immunoproteasome (IPS) (Homo sapiens, UniProt P28062); test: β5 inhibition assay, human immunoproteasome (Suc-LLVY-AMC); assay type: biochemical; details: IC50 class, Suc-LLVY-AMC substrate
# T1 construct: purchased Boston Biochem E-370
# In short: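 β5 activity is read as liberated AMC fluorescence (355/460 nm) after 4 h dark reaction at RT with 22.6 μM Suc-LLVY-AMC, stopped by 1 μM bortezomib. Beforehand, 1 nM human IPS and compound sat 10 min at RT in HEPES pH 7.5 buffer containing NaCl, 0.02% SDS and DTT.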
# [2] = test system: A549 (human lung carcinoma cell line); test: Glo assay of A549 cells (Table 3; ProteasomeGlo plating scheme); assay type: cell-based; details: Homo sapiens; A549 cells; read-out: PGLo A549
# In short: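 IC50 values (nM) come from a cell-based chymotrypsin-like Proteasome-Glo luminescence assay. Compound exposure ran 105 min at 37° C.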
IC50 [1],IC50 [2],Compound
500 to 1000 nM,1000 to 5000 nM,"Cc1ccc2cc1CNC(=O)[C@H](CCc1ccccc1)NC(=O)[C@@H](NC(=O)OCc1ccccc1)CCC(=O)N1CCCC3(CC(C3)O2)C1 [Compound 301, benzyl ((7S,10S)-3^4-methyl-6,9,13-trioxo-7-phenethyl-2-oxa-5,8-diaza-14(3,1)-piperidina-3(1,3)-benzena-1(1,3)-cyclobutanatetradecaphane-10-yl)carbamate]"
< 100 nM,100 to 500 nM,"COC(=O)N(CC1NC(=O)[C@@H](NC(C)=O)CC(=O)N2CCCC(CCOc3ccc(C)c(c3)CNC1=O)C2)c1ccccc1 (stereo partly drawn) [Compound 560, methyl (((12S)-12-acetamido-5^4-methyl-8,11,14-trioxo-4-oxa-7,10-diaza-1(3,1)-piperidina-5(1,3)-benzenacyclotetradecaphane-9-yl)methyl)(phenyl)carbamate]"
< 100 nM,< 100 nM,"Cc1nc(C2NC(=O)[C@@H](NC(=O)OCc3ccccc3)CC(=O)N3CCCC(CCOc4ccc(C)c(c4)CNC2=O)C3)co1 (stereo partly drawn) [Compound 512, benzyl ((12S)-5^4-methyl-9-(2-methyloxazol-4-yl)-8,11,14-trioxo-4-oxa-7,10-diaza-1(3,1)-piperidina-5(1,3)-benzenacyclotetradecaphane-12-yl)carbamate]"
500 to 1000 nM,> 5000 nM,"CC(=O)N[C@H]1CCC(=O)N2CC3CC(Oc4ccc(C)c(c4)CNC(=O)[C@H](CCc4ccccc4)NC1=O)C3C2 (stereo partly shown) [Compound 299, N-(3^4-methyl-6,9,13-trioxo-7-phenethyl-2-oxa-13,5,8-triaza-1(6,3)-bicyclo[3.2.0]heptana-3(1,3)-benzenacyclotridecaphane-10-yl)acetamide]"
< 100 nM,100 to 500 nM,"CC(=O)N[C@H]1CC(=O)N2CCCC(CCOc3ccc(C)c(c3)CNC(=O)C(CCc3cccnc3)NC1=O)C2 (stereo partly drawn) [Compound 549, N-((12S)-5^4-methyl-8,11,14-trioxo-9-(2-(pyridin-3-yl)ethyl)-4-oxa-7,10-diaza-1(3,1)-piperidina-5(1,3)-benzenacyclotetradecaphane-12-yl)acetamide]"
< 100 nM,100 to 500 nM,"Cc1ccc2cc1CNC(=O)[C@H](CCc1ccccc1)NC(=O)[C@@H](NC(=O)OCc1ccccc1)CCC(=O)N1CCC(CO2)C1 (stereo partly drawn) [Compound 349, benzyl ((8S,11S)-4^4-methyl-7,10,14-trioxo-8-phenethyl-3-oxa-6,9-diaza-1(3,1)-pyrrolidina-4(1,3)-benzenacyclotetradecaphane-11-yl)carbamate]"
< 100 nM,100 to 500 nM,"Cc1ccc2cc1CNC(=O)[C@H](CCc1ccccc1)NC(=O)[C@@H](NC(=O)OCc1ccccc1)CCCCC(=O)NCCCCO2 [Compound 347, benzyl ((13S,16S)-1^4-methyl-8,14,17-trioxo-16-phenethyl-2-oxa-7,15,18-triaza-1(1,3)-benzenacyclononadecaphane-13-yl)carbamate]"
< 100 nM,1000 to 5000 nM,"Cc1ccc2cc1CNC(=O)[C@H](CCc1ccccc1)NC(=O)[C@@H](NC(=O)OCc1ccccc1)CCCC(=O)N1CCCC3(CC(C3)O2)C1 [Compound 283, benzyl ((7S,10S)-34-methyl-6,9,14-trioxo-7-phenethyl-2-oxa-5,8-diaza-15(3,1)-piperidina-3(1,3)-benzena-1(1,3)-cyclobutanapentadecaphane-10-yl)carbamate]"
< 100 nM,100 to 500 nM,"CC(=O)N[C@H]1CC(=O)N2CCCC(CCOc3ccc(C)c(c3)CNC(=O)C(CCC3CCN(C(C)=O)CC3)NC1=O)C2 (stereo partly drawn) [Compound 338, N-((12S)-9-(2-(1-acetylpiperidin-4-yl)ethyl)-5^4-methyl-8,11,14-trioxo-4-oxa-7,10-diaza-1(3,1)-piperidina-5(1,3)-benzenacyclotetradecaphane-12-yl)acetamide]"
< 100 nM,< 100 nM,"Cc1ccc2cc1CNC(=O)C(c1cnn(C)c1)NC(=O)[C@@H](NC(=O)CN1CCCC1)CC(=O)N1CCCC(CCO2)C1 (stereo partly drawn) [Compound 358, N-((12S)-5^4-methyl-9-(1-methyl-1H-pyrazol-4-yl)-8,11,14-trioxo-4-oxa-7,10-diaza-1(3,1)-piperidina-5(1,3)-benzenacyclotetradecaphane-12-yl)-2-(pyrrolidin-1-yl)acetamide]"
< 100 nM,100 to 500 nM,"CC(=O)N[C@H]1CC(=O)N2CCCC(CCOc3ccc(C)c(c3)CNC(=O)C(c3coc(C)n3)NC1=O)C2 (stereo partly drawn) [Compound 553, N-((12S)-5^4-methyl-9-(2-methyloxazol-4-yl)-8,11,14-trioxo-4-oxa-7,10-diaza-1(3,1)-piperidina-5(1,3)-benzenacyclotetradecaphane-12-yl)acetamide]"
< 100 nM,< 100 nM,"Cc1ccc2cc1CNC(=O)[C@H](CCc1ccccc1)NC(=O)[C@@H](NC(=O)Cc1nnc(N)[nH]1)CC(=O)N1CCCC(CCO2)C1 (stereo partly drawn) [Compound 340, 2-(5-amino-1H-1,2,4-triazol-3-yl)-N-((9S,12S)-5^4-methyl-8,11,14-trioxo-9-phenethyl-4-oxa-7,10-diaza-1(3,1)-piperidina-5(1,3)-benzenacyclotetradecaphane-12-yl)acetamide]"
< 100 nM,< 100 nM,"Cc1ccc2cc1CNC(=O)C(CCc1ccncc1)NC(=O)[C@@H](NC(=O)Cc1nnc(N)s1)CC(=O)N1CCCC(CCO2)C1 (stereo partly drawn) [Compound 342, 2-(5-amino-1,3,4-thiadiazol-2-yl)-N-((12S)-5^4-methyl-8,11,14-trioxo-9-(2-(pyridin-4-yl)ethyl)-4-oxa-7,10-diaza-1(3,1)-piperidina-5(1,3)-benzenacyclotetradecaphane-12-yl)acetamide]"
< 100 nM,< 100 nM,"Cc1ccc2cc1CNC(=O)[C@H](CCc1ccccc1)NC(=O)[C@@H](NC(=O)c1ncccn1)CC(=O)N1CCCC(CCO2)C1 (stereo partly drawn) [Compound 32, N-((9S,12S)-5^4-methyl-8,11,14-trioxo-9-phenethyl-4-oxa-7,10-diaza-1(3,1)-piperidina-5(1,3)-benzenacyclotetradecaphane-12-yl)pyrimidine-2-carboxamide]"
< 100 nM,< 100 nM,"CC(=O)N[C@H]1CC(=O)N2CCCC(CCOc3ccc(C)c(c3)CNC(=O)C(c3cc(C)n(C)n3)NC1=O)C2 (stereo partly drawn) [Compound 561, N-((12S)-9-(1,5-dimethyl-1H-pyrazol-3-yl)-5^4-methyl-8,11,14-trioxo-4-oxa-7,10-diaza-1(3,1)-piperidina-5(1,3)-benzenacyclotetradecaphane-12-yl)acetamide]"
< 100 nM,100 to 500 nM,"Cc1ccc2cc1CNC(=O)[C@H](CCc1ccccc1)NC(=O)[C@@H](NC(=O)c1ccc3cc(N)ccc3c1)CC(=O)N1CCCC(CCO2)C1 (stereo partly drawn) [Compound 339, 6-amino-N-((9S,12S)-5^4-methyl-8,11,14-trioxo-9-phenethyl-4-oxa-7,10-diaza-1(3,1)-piperidina-5(1,3)-benzenacyclotetradecaphane-12-yl)-2-naphthamide]"
< 100 nM,< 100 nM,"Cc1ccc2cc1CNC(=O)C(CCc1ccncc1)NC(=O)[C@@H](NC(=O)C1(c3ccc(N)cc3)CC1)CC(=O)N1CCCC(CCO2)C1 (stereo partly drawn) [Compound 343, 1-(4-aminophenyl)-N-((12S)-5^4-methyl-8,11,14-trioxo-9-(2-(pyridin-4-yl)ethyl)-4-oxa-7,10-diaza-1(3,1)-piperidina-5(1,3)-benzenacyclotetradecaphane-12-yl)cyclopropane-1-carboxamide]"

# From patent US20240415819A1, “MACROCYCLIC COMPOUNDS AS PROTEASOME SUBUNIT BETA TYPE-5 INHIBITORS” (Lead Discovery Center GmbH, priority 2021, published 2024)
